Converted amounts (≈) assume the structure as drawn. Like-named read-outs stand apart in the source and are kept apart here.
Experiments:
[1] = tested on: MRSA clinical isolate SAU.3017
Experimental: (§1) Susceptibility testing was performed in triplicate using the microdilution broth method as outlined by the Clinical and Laboratory Standards Institute CLSI^52. MH broth was used.

[2] = tested on: MRSA clinical isolate SAU.494; experiment: microbe, parasite or virus in culture; assay type: cell-based, S. aureus; details: Staphylococcus aureus, read-out: MIC
Experimental: as §1

[3] = tested on: MRSA clinical isolate SAU.709; experiment: microbe, parasite or virus in culture; assay type: cell-based, S. aureus; details: Staphylococcus aureus, read-out: MIC
Experimental: as §1

[4] = tested on: MRSA clinical isolate SAU.489; experiment: microbe, parasite or virus in culture; assay type: cell-based, S. aureus; details: Staphylococcus aureus, read-out: MIC
Experimental: as §1

[5] = tested on: MRSA clinical isolate SAU.496; experiment: microbe, parasite or virus in culture; assay type: cell-based, S. aureus; details: Staphylococcus aureus, read-out: MIC
Experimental: as §1

[6] = tested on: MRSA clinical isolate SAU.495; experiment: microbe, parasite or virus in culture; assay type: cell-based, S. aureus; details: Staphylococcus aureus, read-out: MIC
Experimental: as §1

[7] = tested on: MRSA clinical isolate SAU.491; experiment: microbe, parasite or virus in culture; assay type: cell-based, S. aureus; details: Staphylococcus aureus, read-out: MIC
Experimental: as §1

[8] = tested on: MRSA clinical isolate SAU.710; experiment: microbe, parasite or virus in culture; assay type: cell-based, S. aureus; details: Staphylococcus aureus, read-out: MIC
Experimental: as §1

[9] = tested on: MRSA clinical isolate SAU.493; experiment: microbe, parasite or virus in culture; assay type: cell-based, S. aureus; details: Staphylococcus aureus, read-out: MIC
Experimental: as §1

[10] = tested on: MRSA clinical isolate SAU.492; experiment: microbe, parasite or virus in culture; assay type: cell-based, S. aureus; details: Staphylococcus aureus, read-out: MIC
Experimental: as §1

[11] = tested on: MRSA clinical isolate SAU.419; experiment: MIC, microdilution broth; assay type: cell-based, S. aureus
Experimental: as §1

[12] = tested on: MRSA clinical isolate SAU.3025; experiment: MIC, microdilution broth; assay type: cell-based, S. aureus; details: Staphylococcus aureus
Experimental: as §1

[13] = tested on: MRSA clinical isolate SAU.555; experiment: MIC, microdilution broth; assay type: cell-based, S. aureus; details: Staphylococcus aureus
Experimental: as §1

[14] = tested on: MRSA clinical isolate SAU.669; experiment: MIC, microdilution broth; assay type: cell-based, S. aureus; details: Staphylococcus aureus
Experimental: as §1

[15] = tested on: MRSA clinical isolate SAU.42; experiment: MIC, microdilution broth; assay type: cell-based, S. aureus; details: Staphylococcus aureus
Experimental: as §1

[16] = tested on: MRSA clinical isolate SAU.846; experiment: MIC, microdilution broth; assay type: cell-based, S. aureus
Experimental: as §1

[17] = tested on: MRSA clinical isolate SAU.2996; experiment: MIC, microdilution broth; assay type: cell-based, S. aureus
Experimental: as §1

[18] = tested on: MRSA clinical isolate SAU.1118; experiment: MIC, microdilution broth; assay type: cell-based, S. aureus; details: Staphylococcus aureus
Experimental: as §1

[19] = tested on: MRSA clinical isolate SAU.3026; experiment: MIC, microdilution broth; assay type: cell-based, S. aureus
Experimental: as §1

[20] = tested on: MRSA clinical isolate SAU.3021; experiment: MIC, microdilution broth; assay type: cell-based, S. aureus
Experimental: as §1

[21] = tested on: MRSA clinical isolate SAU.447; experiment: MIC, microdilution broth; assay type: cell-based, S. aureus; details: Staphylococcus aureus
Experimental: as §1

[22] = tested on: MRSA clinical isolate SAU.446; experiment: MIC, microdilution broth; assay type: cell-based, S. aureus; details: Staphylococcus aureus
Experimental: as §1

[23] = tested on: MRSA clinical isolate SAU.3024; experiment: MIC, microdilution broth; assay type: cell-based, S. aureus; details: Staphylococcus aureus
Experimental: as §1

[24] = tested on: Enterococcus ATCC 29212; experiment: organism not typed; assay type: cell-based, E. faecalis; details: ATCC 29212, E. faecalis; gyrA WT, parC WT; read-out: MIC
[25] = tested on: VRE clinical isolate C28036; experiment: microbe, parasite or virus in culture; assay type: cell-based, Ent. Spp.; details: Enterococcus
Experimental: (§2) QRDR mutations were determined as described in the text using primers (primer sequences can be found in Table 7).
as §1

[26] = physchem; details: pH 7.4 PBS; three replicates ± SEM
Experimental: Enough PBS was added to make a 1 mg/mL solution. Compounds were then assessed by LC-MS and compared to a calibration curve to determine the solubility. […] Data shown is from three independent replicates±SEM. […] Between DMSO additions, the vial was vortexed and sonicated.
The compound was vortexed for ˜30 seconds before being placed into a bath sonicator (Cole Parmer, ultrasonic cleaner) for 1 h. […] The tubes were vortexed again for 30 s before being centrifuged at maximum speed (13,000×g) for 10 minutes. The supernatant was then filtered through a 0.22 μm syringe filter (Millipore Millex MP). […] Three independent replicates of each compound were performed. A calibration curve for each compound was generated from 1-400 μM by dissolving the compound in DMSO and making dilutions of the stock in DMSO. […] The concentration of the samples was calculated based on the calibration curves.

[27] = tested on: VRE clinical isolate S34; experiment: organism not typed; assay type: cell-based, E. faecium
Experimental: as §2, §1

[28] = tested on: VRE clinical isolate S235; experiment: organism not typed; assay type: cell-based, E. faecium
Experimental: as §2, §1

[29] = tested on: VRE clinical isolate C27282; experiment: organism not typed; assay type: cell-based, E. faecium
Experimental: as §2, §1

[30] = tested on: VRE clinical isolate U464; experiment: organism not typed; assay type: cell-based, E. faecium
Experimental: as §2, §1

[31] = tested on: VRE clinical isolate S226; experiment: organism not typed; assay type: cell-based, E. faecium
Experimental: as §2, §1

[32] = tested on: VRE clinical isolate U503; experiment: organism not typed; assay type: cell-based, E. faecium
Experimental: as §2, §1

[33] = tested on: VRE clinical isolate U63; experiment: organism not typed; assay type: cell-based, E. faecium
Experimental: as §2, §1

[34] = tested on: VRE clinical isolate S51; experiment: organism not typed; assay type: cell-based, E. faecium
Experimental: as §2, §1

[35] = tested on: VRE clinical isolate U563; experiment: organism not typed; assay type: cell-based, E. faecium
Experimental: as §2, §1

[36] = tested on: VRE clinical isolate C21190; experiment: organism not typed; assay type: cell-based, E. faecium
Experimental: as §2, §1

[37] = tested on: VRE clinical isolate U275; experiment: organism not typed; assay type: cell-based, E. faecium
Experimental: as §2, §1

[38] = tested on: Enterococcus ATCC 19433; experiment: organism not typed; assay type: cell-based, E. faecalis; details: ATCC 19433, E. faecalis; gyrA WT, parC WT; read-out: MIC
[39] = tested on: VRE clinical isolate S206; experiment: organism not typed; assay type: cell-based, E. faecalis
Experimental: as §2, §1

[40] = tested on: VRE clinical isolate D1; experiment: organism not typed; assay type: cell-based, E. faecium; details: read-out: MIC
[41] = tested on: VRE clinical isolate S234; experiment: organism not typed; assay type: cell-based, E. faecalis; details: read-out: MIC
[42] = tested on: E. coli ATCC 25922; experiment: microbe, parasite or virus in culture; assay type: cell-based; details: Escherichia coli, ATCC25922, gyrA none, parC none
Experimental: (§3) E. coli MG1655 and the ΔAcrB strain were obtained from Prof. Cari Vanderpool at UIUC.
as §1

[43] = tested on: P. aeruginosa PAO1; experiment: microbe, parasite or virus in culture; assay type: cell-based; details: Pseudomonas aeruginosa, gyrA none, parC none
Experimental: as §3, §1

[44] = tested on: A. baumannii ATCC 19606; experiment: microbe, parasite or virus in culture; assay type: cell-based; details: Acinetobacter baumannii, ATCC19606, gyrA none, parC none
Experimental: as §3, §1

[45] = tested on: PA1586; experiment: MIC, microdilution broth; assay type: cell-based, P. aeruginosa; details: Pseudomonas aeruginosa
Experimental: as §3, §1

[46] = tested on: VRE clinical isolates; experiment: Panel of VRE clinical isolates (FIG. 2B); assay type: cell-based, Enterococcus; details: n=22, in words
[47] = tested on: MRSA clinical isolates; experiment: Panel of MRSA clinical isolates (FIG. 2A); assay type: cell-based, S. aureus; details: n=21, in words
[48] = tested on: MRSA clinical isolate SAU.708; experiment: microbe, parasite or virus in culture; assay type: cell-based, S. aureus; details: Staphylococcus aureus, read-out: MIC
Experimental: as §1

[49] = tested on: VRE clinical isolate S557; experiment: organism not typed; assay type: cell-based, E. faecium; details: read-out: MIC
[50] = tested on: A. baumannii KB304; experiment: MIC, microdilution broth; assay type: cell-based; details: Acinetobacter baumannii
Experimental: as §3, §1

[51] = tested on: A. baumannii KB349; experiment: MIC, microdilution broth; assay type: cell-based; details: Acinetobacter baumannii
Experimental: as §3, §1

[52] = physchem; details: organic solvent or mixture, thermodynamic from solid
[53] = tested on: S. aureus 29213 (WT GyrA and WT ParC); experiment: microbe, parasite or virus in culture; assay type: cell-based; details: Staphylococcus aureus; WT GyrA and WT ParC; read-out: MIC against S. aureus 29213
Experimental: as §1

[54] = Staphylococcus aureus, MRSA, read-out: MIC

In the case of `CC1(C)S[C@@H]2[C@H](NC(=O)[C@H](N)c3ccccc3)C(=O)N2[C@H]1C(=O)O` [Amp, Ampicillin, reference compound], the MIC [1] was greater than 64 µg/mL, the MIC [2] was greater than 64 µg/mL and the MIC [3] was greater than 64 µg/mL. It also gave an MIC [4] greater than 64 µg/mL, an MIC [5] greater than 64 µg/mL and an MIC [6] greater than 64 µg/mL. For the same molecule, the MIC [7] was greater than 64 µg/mL, the MIC [8] was greater than 64 µg/mL and the MIC [9] was greater than 64 µg/mL. For the same molecule, the MIC [10] was greater than 64 µg/mL, the MIC [11] was greater than 64 µg/mL and the MIC [12] was 64 µg/mL (≈ 183 µM). It also gave an MIC [13] greater than 64 µg/mL, an MIC [14] greater than 64 µg/mL and an MIC [15] of 2 µg/mL (≈ 5.72 µM). It also gave an MIC [16] greater than 64 µg/mL, an MIC [17] greater than 64 µg/mL and an MIC [18] greater than 64 µg/mL. It also gave an MIC [19] greater than 64 µg/mL, an MIC [20] greater than 64 µg/mL and an MIC [21] greater than 64 µg/mL. It also gave an MIC [22] greater than 64 µg/mL and an MIC [23] greater than 64 µg/mL.
For `CCCn1c(=O)cc(C)c2cc3c(C)cc(=O)n4c3c(c21)OC4` [DNM-8], the MIC [24] was 8 µg/mL (≈ 25.8 µM), the MIC [25] was 1 µg/mL (≈ 3.22 µM) and the “Solubility in pH 7.4 PBS” value [26] was 68 μM. For the same molecule, the MIC [27] was 2 µg/mL (≈ 6.44 µM), the MIC [28] was 1 µg/mL (≈ 3.22 µM) and the MIC [29] was 8 µg/mL (≈ 25.8 µM). It also gave an MIC [30] of 2 µg/mL (≈ 6.44 µM), an MIC [31] of 1 µg/mL (≈ 3.22 µM) and an MIC [32] of 4 µg/mL (≈ 12.9 µM). It also gave an MIC [33] of 4 µg/mL (≈ 12.9 µM), an MIC [34] of 1 µg/mL (≈ 3.22 µM) and an MIC [35] of 4 µg/mL (≈ 12.9 µM). It also gave an MIC [36] of 8 µg/mL (≈ 25.8 µM), an MIC [37] of 4 µg/mL (≈ 12.9 µM) and an MIC [38] of 16 µg/mL (≈ 51.6 µM). It also gave an MIC [39] of 4 µg/mL (≈ 12.9 µM), an MIC [40] of 0.5 µg/mL (≈ 1.61 µM) and an MIC [41] of 0.5 µg/mL (≈ 1.61 µM). The MIC [42] was greater than 32 µg/mL, the MIC [43] was greater than 32 µg/mL and the MIC [44] was greater than 32 µg/mL. For the same molecule, the MIC [45] was greater than 32 µg/mL, the “sensitivity of VRE clinical isolates” value [46] was “sensitive” and the “sensitivity of MRSA clinical isolates” value [47] was “sensitive”. For the same molecule, the MIC [2] was 0.25 µg/mL (≈ 0.806 µM), the MIC [3] was 0.25 µg/mL (≈ 0.806 µM) and the MIC [4] was 0.25 µg/mL (≈ 0.806 µM). It also gave an MIC [5] of 0.25 µg/mL (≈ 0.806 µM), an MIC [6] of 0.25 µg/mL (≈ 0.806 µM) and an MIC [7] of 0.5 µg/mL (≈ 1.61 µM). The MIC [8] was 0.125 µg/mL (≈ 0.403 µM), the MIC [9] was 0.25 µg/mL (≈ 0.806 µM) and the MIC [48] was 1 µg/mL (≈ 3.22 µM). The MIC [49] was 0.5 µg/mL (≈ 1.61 µM), the MIC [11, 54] was 0.25 µg/mL (≈ 0.806 µM) and the MIC [13] was 0.5 µg/mL (≈ 1.61 µM). It also gave an MIC [19, 54] of 0.25 µg/mL (≈ 0.806 µM), an MIC [20, 54] of 0.125 µg/mL (≈ 0.403 µM) and an MIC [50] greater than 32 µg/mL. The MIC [51] was greater than 32 µg/mL, the solubility [52] was 11.3 mM (≈ 3510 µg/mL) and the MIC [53] was 16 µg/mL (≈ 51.6 µM).
